Reference: the supplement of paper PMC8617591

Key:
[1] = test system: Mycobacterium tuberculosis Erdman (autoluminescent); experiment: total FIC50 (Loewe) at 50% inhibition, three-drug combination (log2); higher = more antagonistic
Experimental: (§1)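 DiaMOND equipotent three-drug combination dose responses (10 doses, 1.5- or 2-fold spacing, centred on IC90) against autoluminescent M. tuberculosis Erdman in 8 in vitro models. Read-out is OD600, or luminescence for the intracellular and dormancy models, normalised to untreated wells. Hill-fit Einf, AUC25 and GRinf are potency metrics; FIC50 and FIC90 are total Loewe fractional inhibitory concentrations as log2 (negative = synergy).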

[2] = test system: Mycobacterium tuberculosis Erdman (autoluminescent); experiment: AUC25, normalised area under dose response up to IC25 (three-drug combination) (fraction (0-1)); higher = more potent at low dose
Experimental: as §1

[3] = test system: Mycobacterium tuberculosis Erdman (autoluminescent); experiment: Einf, fitted maximum growth inhibition of three-drug combination (fraction); higher = stronger maximal inhibition
Experimental: as §1

[4] = test system: Mycobacterium tuberculosis Erdman (autoluminescent); experiment: GRinf, maximum normalised growth rate inhibition (three-drug combination) (unitless (-1 to 1)); higher = less effect (negative = killing)
Experimental: as §1

[5] = test system: Mycobacterium tuberculosis Erdman (autoluminescent); experiment: total FIC90 (Loewe) at 90% inhibition, three-drug combination (log2); higher = more antagonistic
Experimental: as §1

[6] = in vitro model: acidic pH 5.7, time point: constant (~7 days, model-specific)
[7] = in vitro model: acidic pH 5.7, time point: terminal (~4-5 doublings, model-specific)
[8] = in vitro model: butyrate, time point: constant (~7 days, model-specific)
[9] = in vitro model: butyrate, time point: terminal (~4-5 doublings, model-specific)
[10] = in vitro model: cholesterol 0.05 mM, time point: constant (~7 days, model-specific)
[11] = in vitro model: cholesterol 0.05 mM, time point: terminal (~4-5 doublings, model-specific)
[12] = in vitro model: cholesterol-high 0.2 mM, time point: constant (~7 days, model-specific)
[13] = in vitro model: cholesterol-high 0.2 mM, time point: terminal (~4-5 doublings, model-specific)
[14] = in vitro model: dormancy (butyrate + nitrate, low O2), time point: constant (~7 days, model-specific)
[15] = in vitro model: dormancy (butyrate + nitrate, low O2), time point: terminal (~4-5 doublings, model-specific)
[16] = in vitro model: standard 7H9 glycerol, time point: constant = terminal
[17] = in vitro model: valerate, time point: constant (~7 days, model-specific)
[18] = in vitro model: valerate, time point: terminal (~4-5 doublings, model-specific)
[19] = in vitro model: intracellular J774, time point: constant = terminal

NNC(=O)c1ccncc1 [isoniazid] + CC(=O)NC[C@H]1CN(c2ccc(N3CCOCC3)c(F)c2)C(=O)O1 [linezolid] + CO[C@H]1/C=C/O[C@@]2(C)Oc3c(C)c(O)c4c(O)c(c(/C=N/N5CCN(C)CC5)c(O)c4c3C2=O)NC(=O)/C(C)=C\C=C\[C@H](C)[C@H](O)[C@@H](C)[C@@H](O)[C@@H](C)[C@H](OC(C)=O)[C@@H]1C [rifampicin]
total FIC50 [1, 6]: 0.571 | total FIC50 [1, 7]: 0.505 | total FIC50 [1, 8]: 0.353 | total FIC50 [1, 9]: 0.184 | total FIC50 [1, 10]: 0.356 | total FIC50 [1, 11]: 4.8 | total FIC50 [1, 12]: 0.569 | total FIC50 [1, 13]: 0.831 | total FIC50 [1, 14]: 0.857 | total FIC50 [1, 15]: 0.231 | total FIC50 [1, 16]: 0.299 | total FIC50 [1, 17]: 0.491 | total FIC50 [1, 18]: 0.502 | AUC25 [2, 6]: 0.073 | AUC25 [2, 7]: 0.0682 | AUC25 [2, 8]: 0.0943 | AUC25 [2, 9]: 0.0727 | AUC25 [2, 10]: 0.139 | AUC25 [2, 11]: 0.135 | AUC25 [2, 12]: 0.11 | AUC25 [2, 13]: 0.0902 | AUC25 [2, 14]: 0.0701 | AUC25 [2, 15]: 0.036 | AUC25 [2, 16]: 0.0756 | AUC25 [2, 17]: 0.0594 | AUC25 [2, 18]: 0.035 | Einf [3, 6]: 0.841 | Einf [3, 7]: 0.972 | Einf [3, 8]: 0.915 | Einf [3, 9]: 0.958 | Einf [3, 10]: 0.691 | Einf [3, 11]: 0.916 | Einf [3, 12]: 0.956 | Einf [3, 13]: 0.997 | Einf [3, 14]: 0.891 | Einf [3, 15]: 0.978 | Einf [3, 19]: 0.947 | Einf [3, 16]: 0.899 | Einf [3, 17]: 0.862 | Einf [3, 18]: 0.934 | GRinf [4, 6]: -0.0845 | GRinf [4, 7]: -0.116 | GRinf [4, 8]: 0.0298 | GRinf [4, 9]: 0.0122 | GRinf [4, 10]: -0.14 | GRinf [4, 11]: -0.324 | GRinf [4, 12]: -0.355 | GRinf [4, 13]: -0.919 | GRinf [4, 14]: 0.192 | GRinf [4, 15]: -0.111 | GRinf [4, 19]: -0.188 | GRinf [4, 16]: 0.148 | GRinf [4, 17]: 0.0129 | GRinf [4, 18]: 0.0126 | total FIC90 [5, 7]: 0.335 | total FIC90 [5, 8]: 0.315 | total FIC90 [5, 9]: 0.0301 | total FIC90 [5, 11]: -0.269 | total FIC90 [5, 13]: 0.809 | total FIC90 [5, 14]: 0.12 | total FIC90 [5, 15]: 0.0283 | total FIC90 [5, 19]: -0.141 | total FIC90 [5, 16]: -0.589 | total FIC90 [5, 18]: 0.221

COc1nc2ccc(Br)cc2cc1[C@@H](c1ccccc1)[C@@](O)(CCN(C)C)c1cccc2ccccc12 [bedaquiline] + NNC(=O)c1ccncc1 [isoniazid] + CO[C@H]1/C=C/O[C@@]2(C)Oc3c(C)c(O)c4c(O)c(c(/C=N/N5CCN(C6CCCC6)CC5)c(O)c4c3C2=O)NC(=O)/C(C)=C\C=C\[C@H](C)[C@H](O)[C@@H](C)[C@@H](O)[C@@H](C)[C@H](OC(C)=O)[C@@H]1C [rifapentine]
total FIC50 [1, 6]: 0.854 | total FIC50 [1, 7]: 0.671 | total FIC50 [1, 8]: 0.749 | total FIC50 [1, 9]: 0.65 | total FIC50 [1, 10]: 0.606 | total FIC50 [1, 11]: 0.573 | total FIC50 [1, 12]: 0.787 | total FIC50 [1, 13]: 0.962 | total FIC50 [1, 14]: 0.628 | total FIC50 [1, 15]: 0.557 | total FIC50 [1, 16]: 0.229 | total FIC50 [1, 17]: 0.867 | total FIC50 [1, 18]: 1.05 | AUC25 [2, 6]: 0.0986 | AUC25 [2, 7]: 0.0903 | AUC25 [2, 8]: 0.0748 | AUC25 [2, 9]: 0.0596 | AUC25 [2, 10]: 0.0859 | AUC25 [2, 11]: 0.0803 | AUC25 [2, 12]: 0.0656 | AUC25 [2, 13]: 0.06 | AUC25 [2, 14]: 0.0684 | AUC25 [2, 15]: 0.0424 | AUC25 [2, 16]: 0.0599 | AUC25 [2, 17]: 0.0499 | AUC25 [2, 18]: 0.0394 | Einf [3, 6]: 0.958 | Einf [3, 7]: 0.998 | Einf [3, 8]: 0.93 | Einf [3, 9]: 0.969 | Einf [3, 10]: 0.689 | Einf [3, 11]: 0.905 | Einf [3, 12]: 0.954 | Einf [3, 13]: 1 | Einf [3, 14]: 0.89 | Einf [3, 15]: 0.986 | Einf [3, 19]: 0.92 | Einf [3, 16]: 0.942 | Einf [3, 17]: 0.906 | Einf [3, 18]: 0.958 | GRinf [4, 6]: -0.468 | GRinf [4, 7]: -0.375 | GRinf [4, 8]: -0.0408 | GRinf [4, 9]: -0.0505 | GRinf [4, 10]: -0.113 | GRinf [4, 11]: -0.101 | GRinf [4, 12]: -0.564 | GRinf [4, 13]: -0.621 | GRinf [4, 14]: 0.303 | GRinf [4, 15]: -0.0574 | GRinf [4, 19]: -0.0955 | GRinf [4, 16]: -0.00945 | GRinf [4, 17]: -0.146 | GRinf [4, 18]: -0.122 | total FIC90 [5, 7]: 0.815 | total FIC90 [5, 8]: -0.0255 | total FIC90 [5, 9]: 0.51 | total FIC90 [5, 11]: 0.195 | total FIC90 [5, 13]: 0.847 | total FIC90 [5, 14]: 0.878 | total FIC90 [5, 15]: 0.296 | total FIC90 [5, 19]: 0.118 | total FIC90 [5, 16]: -0.235 | total FIC90 [5, 18]: 1
